Values of other authors, collected in US20240368046A1, “UREA-BASED C[…] WITH AN INORGANIC ACID” (Y ara International ASA, priority 2021, published 2024).

Q: Which pKa does the source give for urea sulphate here?
A: about 1.5
